Test [1] addresses T1, Acetylcholinesterase (Homo sapiens, UniProt P22303). The test is described as follows: Inhibition of human AChE induced beta-amyloid aggregation in thioflavin T-based fluorometric assay. Also on record: concentration or dose not given beside the values. The format is functional. The note with it: concentration not given here.
Test [2] addresses Cholinesterases; ACHE & BCHE (Homo sapiens) (UniProt P06276+P22303). The test is described as follows: Ratio of IC50 for human BuChE and AChE. The format is protein assay.
Another test concerns the target Cholinesterase (Homo sapiens, UniProt P06276). The test can be described thus: Inhibition of isolated human BuChE.
The target of test [3] is T1, Acetylcholinesterase. The test can be described thus: Inhibition of recombinant human AChE.

Results on 17 compounds are retold here after ChEMBL document CHEMBL1140306 (J Med Chem, 2005).

T1 sequence (P22303 whole entry): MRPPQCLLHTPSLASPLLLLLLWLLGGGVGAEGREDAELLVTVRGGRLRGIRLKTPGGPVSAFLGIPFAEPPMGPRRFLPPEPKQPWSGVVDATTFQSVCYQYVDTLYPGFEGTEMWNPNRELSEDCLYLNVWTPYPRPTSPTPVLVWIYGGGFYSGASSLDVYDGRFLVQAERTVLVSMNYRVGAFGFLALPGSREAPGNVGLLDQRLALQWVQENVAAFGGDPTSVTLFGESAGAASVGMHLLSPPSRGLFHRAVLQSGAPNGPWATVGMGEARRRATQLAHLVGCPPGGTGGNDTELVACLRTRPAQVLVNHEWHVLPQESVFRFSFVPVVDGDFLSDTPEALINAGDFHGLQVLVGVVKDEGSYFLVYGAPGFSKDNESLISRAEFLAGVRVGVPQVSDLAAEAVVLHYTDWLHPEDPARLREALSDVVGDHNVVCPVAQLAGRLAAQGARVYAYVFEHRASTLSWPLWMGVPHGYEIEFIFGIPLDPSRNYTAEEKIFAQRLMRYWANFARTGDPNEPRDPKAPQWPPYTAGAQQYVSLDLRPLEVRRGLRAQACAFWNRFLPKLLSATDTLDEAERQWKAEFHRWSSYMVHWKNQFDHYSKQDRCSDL
Sequence of Cholinesterase (P06276 whole entry): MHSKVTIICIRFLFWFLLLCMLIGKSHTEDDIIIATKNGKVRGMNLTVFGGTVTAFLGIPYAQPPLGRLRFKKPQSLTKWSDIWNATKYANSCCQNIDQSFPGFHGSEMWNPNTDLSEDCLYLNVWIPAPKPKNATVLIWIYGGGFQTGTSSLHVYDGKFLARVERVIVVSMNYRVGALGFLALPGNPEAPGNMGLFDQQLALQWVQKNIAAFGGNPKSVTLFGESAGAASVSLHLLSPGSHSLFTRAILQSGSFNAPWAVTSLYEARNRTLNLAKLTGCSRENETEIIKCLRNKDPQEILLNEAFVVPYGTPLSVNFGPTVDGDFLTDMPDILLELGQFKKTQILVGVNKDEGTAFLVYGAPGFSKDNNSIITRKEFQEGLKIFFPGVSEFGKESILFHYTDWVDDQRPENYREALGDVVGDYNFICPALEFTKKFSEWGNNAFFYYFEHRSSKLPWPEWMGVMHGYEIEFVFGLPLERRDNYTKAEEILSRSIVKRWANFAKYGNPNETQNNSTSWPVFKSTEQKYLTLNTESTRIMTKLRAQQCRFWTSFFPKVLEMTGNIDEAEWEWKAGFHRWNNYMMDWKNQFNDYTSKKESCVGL
Sequence of Cholinesterases; ACHE & BCHE (Homo sapiens) (P06276 whole entry, looked up): as the sequence (P06276 whole entry) above
Sequence of Cholinesterases; ACHE & BCHE (Homo sapiens) (P22303 whole entry, looked up): as the sequence (P22303 whole entry) above

On to `CNC(=O)Oc1cccc(CN(C)CCCOc2ccc3c(=O)c4ccccc4oc3c2)c1`, for which the inhibition at Acetylcholinesterase [1] was < 10%.
At Acetylcholinesterase [1], `CNC(=O)Oc1cccc(CN(C)CCCCCCCOc2ccc3c(c2)O/C(=C\c2c4ccccc4cc4ccccc24)C3=O)c1` showed an inhibition of 65.3%. Also, the Ratio in test [2] was 9.6. Moreover, the IC50 turned out to be 0.761 µM against Cholinesterase and 0.0791 µM on Acetylcholinesterase [3].
On to `CN(CCCCCCCOc1ccc2c(c1)O/C(=C\c1cccc3ccccc13)C2=O)Cc1cccc(O)c1`, for which, on Acetylcholinesterase [1], the inhibition stood at 49.5%. Moreover, the Ratio in test [2] was 0.09.
On to `CNC(=O)Oc1cccc(CN(C)CCCCCCCOc2ccc3c(c2)C/C(=C\c2cc(OC)c(OC)c(OC)c2)C3=O)c1`, for which the inhibition on Acetylcholinesterase [1] came out at 32.8%. The Ratio in test [2] stood at 45.2. Also, the results for the IC50 at Cholinesterase and on Acetylcholinesterase [3] were 0.0813 µM and 0.0018 µM, respectively.
The like results for `CNC(=O)Oc1cccc(CN(C)CCCCCCCOc2ccc3c(c2)OC/C(=C\c2cc(OC)c(OC)c(OC)c2)C3=O)c1` were, in that order, 45.3%, 15.6, 0.153 µM and 0.00981 µM.
`CNC(=O)Oc1cccc(CN(C)CCCCCCCOc2ccc3c(=O)c4ccccc4oc3c2)c1`: on Acetylcholinesterase [1], the inhibition is < 10%. The Ratio in test [2] stood at 51.6.
At Acetylcholinesterase [1], `CNC(=O)Oc1cccc(CN(C)CCCCCCCOc2ccc3c(c2)CC/C(=C\c2cc(OC)c(OC)c(OC)c2)C3=O)c1` gave an inhibition of 33.3%. Besides, the Ratio in test [2] turned out to be 17.1. In addition, the half-inhibitory concentration (IC50) is 0.0844 µM on Cholinesterase and 0.00494 µM on Acetylcholinesterase [3].
`CNC(=O)Oc1cccc(CN(C)CCCCCCCOc2ccc3c(c2)O/C(=C\c2cc(Cl)cc(Cl)c2)C3=O)c1`: on Acetylcholinesterase [1], the inhibition worked out at 47.6%. For the same compound, in test [2], the Ratio was determined as 2.91. Further, the 50% inhibitory concentration (IC50) at Cholinesterase was 0.13 µM; at Acetylcholinesterase [3], 0.0446 µM.
Taken in the same sequence, the figures for `CNC(=O)Oc1cccc(CN(C)CCCCCCCOc2ccc3c(c2)O/C(=C\c2cc(OC)c(OC)c(OC)c2)C3=O)c1` were 41%, 261, 0.136 µM and 0.00052 µM.
In turn, `CNC(=O)Oc1ccc2c(c1)[C@]1(C)CCN(C)[C@@H]1N2C` yielded an inhibition against Acetylcholinesterase [1] of 30%.
On to `CNC(=O)Oc1cccc(CN(C)CCCOc2ccc3c(c2)O/C(=C\c2ccc4ccccc4c2)C3=O)c1`, for which the inhibition against Acetylcholinesterase [1] was 35%. In addition, the Ratio in test [2] came out at 20.6. Moreover, the concentration for half-maximal inhibition (IC50) against Cholinesterase is 0.0703 µM; on Acetylcholinesterase [3], 0.00341 µM.
Taken in the same sequence, the figures for `CNC(=O)Oc1cccc(CN(C)CCCCCCCOc2ccc3c(c2)O/C(=C\c2cccc4ccccc24)C3=O)c1` were 66.7%, 14.5, 0.0402 µM and 0.00276 µM.
`CNC(=O)Oc1cccc(CN(C)CCCOc2ccc3c(c2)O/C(=C\c2cc(OC)c(OC)c(OC)c2)C3=O)c1` displayed an inhibition against Acetylcholinesterase [1] of 29.2%. Also, in test [2], the Ratio amounted to 51.8. The IC50 came to 0.155 µM at Cholinesterase and 0.00299 µM on Acetylcholinesterase [3].
Regarding `CNC(=O)Oc1cccc(CN(C)CCCCCCCOc2ccc3c(c2)O/C(=C\c2ccccc2)C3=O)c1`, the inhibition on Acetylcholinesterase [1] is 43.3%. The Ratio in test [2] came out at 29.7. Also, the 50% inhibitory concentration (IC50) was determined as 0.0579 µM against Cholinesterase and 0.00195 µM on Acetylcholinesterase [3].
On Acetylcholinesterase [1], `CNC(=O)Oc1cccc(CN(C)CCCCCCCOc2ccc3c(c2)OCC3=O)c1` returned an inhibition of 17.5%. Also, the Ratio in test [2] is 7.08. This compound also gave an IC50 against Cholinesterase of 11.4 µM.
Compound `CNC(=O)Oc1cccc(CN(C)CCCOc2ccc3c(c2)O/C(=C\c2cccc4ccccc24)C3=O)c1` came in with an inhibition against Acetylcholinesterase [1] of 37.2%. For the same compound, in test [2], the Ratio stood at 6.45. Further, the IC50 against Cholinesterase is 0.0443 µM; on Acetylcholinesterase [3] it was 0.00686 µM.
The like results for `CNC(=O)Oc1cccc(CN(C)CCCCCCCOc2ccc3c(c2)O/C(=C\c2ccc(Cl)c(Cl)c2)C3=O)c1` were, in that order, 49.1%, 11.8, 0.0946 µM and 0.008 µM.
